Results reported in patent publication US20110160196A1, “FACTOR XA INHIBITORS” (Millennium Pharmaceuticals, Inc., priority 2007, published 2011).

What follows are molecules tested against T1, human plasma protein factor Xa (Homo sapiens, UniProt P00742) (assay: Factor Xa IC50 determination (cleavage of paranitroanilide substrate S-2765)). Conditions: factor Xa 1 nM, S-2765 100 μM, Tris buffered saline pH 7.4, read at 405 nm.
T1 construct: The human plasma protein factor Xa was purchased; purchased Haematologic Technologies (Essex Junction, Vt.); host or cells: human plasma
T1 sequence (P00742 235-488 limits assumed): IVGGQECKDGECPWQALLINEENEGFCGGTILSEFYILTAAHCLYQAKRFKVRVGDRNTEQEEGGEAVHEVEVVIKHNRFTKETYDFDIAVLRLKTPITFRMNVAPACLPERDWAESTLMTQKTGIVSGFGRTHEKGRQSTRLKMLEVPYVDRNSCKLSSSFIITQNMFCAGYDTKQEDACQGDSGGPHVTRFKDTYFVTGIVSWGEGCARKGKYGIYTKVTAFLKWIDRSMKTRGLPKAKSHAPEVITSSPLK
T1 sequence (P00742 41-179 partner limits assumed): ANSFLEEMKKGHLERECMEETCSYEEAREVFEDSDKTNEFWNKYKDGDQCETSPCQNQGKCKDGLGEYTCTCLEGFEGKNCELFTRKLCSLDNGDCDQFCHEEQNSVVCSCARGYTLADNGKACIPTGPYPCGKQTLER
Type: biochemical
Description: This example illustrates methods for evaluating the compounds of the invention, along with results obtained for such assays. The in vitro and in vivo human Factor Xa activities of the inventive compounds can be determined by various procedures known in the art, such as a test for their ability to inhibit the activity of human plasma Factor Xa. […] The IC50 value is the concentration (in nM) of the compound required to provide 50% inhibition of human Factor Xa proteolytic activity.
An in vitro assay for detecting and measuring inhibition activity against Factor Xa is as follows:
The substrate S-2765 (Z-D-Arg-Gly-Arg-pNA.HCl) was obtained from Diapharma (West Chester, Ohio).
The human plasma protein factor Xa was purchased from Haematologic Technologies (Essex Junction, Vt.).
All assays, which are performed in 96-well microtiter plates, measure proteolytic activity of the enzyme (factor Xa) by following cleavage of a paranitroanilide peptide substrate. The assay buffer used for proteolytic assays was Tris buffered saline (20 mM Tris, 150 mM NaCl, 5 mM CaCl2, 0.1% Bovine serum albumin (BSA), 5% Dimethly Sulfoxide (DMSO) pH 7.4). In a 96-well microtiter plate, inhibitor was serially diluted to give a range of final concentrations from 0.01 nM to 10 μM. Duplicate sets of wells were assayed and control wells without inhibitor were included. Enzyme was added to each well, (factor Xa concentration=1 nM), the plate was shaken for 5 seconds and then incubated for 5 minutes at room temperature. S-2765 was added (100 μM final) and the plate was shaken for 5 seconds (final volume in each well was 200 μl). The degree of substrate hydrolysis was measured at 405 nm on a Thermomax plate reader (Molecular Devices, Sunnyvale, Calif.) for 2 minutes. The initial velocities of substrate cleavage (mOD/min), for each range of inhibitor concentrations, were fitted to a four parameter equation using Softmax data analysis software. The parameter C, derived from the resulting curve-fit, corresponded to the concentration for half maximal inhibition (IC50).
`NC1CCN(c2cc(-n3ccccc3=O)ccc2-n2cc(CNC(=O)c3ccc(Cl)s3)nn2)CC1` [Compound 17, N-((1-(2-(4-Aminopiperidin-1-yl)-4-(2-oxopyridin-1(2H)-yl)phenyl)-1H-1,2,3-triazol-4-yl)methyl)-5-chlorothiophene-2-carboxamide] gave an IC50 of at most 100 nM. In the case of `NCCSc1cc(-n2ccccc2=O)ccc1-n1cc(CNC(=O)c2ccc(Cl)s2)nn1` [Compound 53, N-((1-(2-(2-Aminoethylthio)-4-(2-oxopyridin-1(2H)-yl)phenyl)-lH-1,2,3-triazol-4-yl)methyl)-5-chlorothiophene-2-carboxamide], the IC50 is reported as at most 100 nM. In the case of `O=C(NCc1cn(-c2ccc(-n3ccccc3=O)cc2CN2CCSCC2)nn1)c1ccc(Cl)s1` [Compound 162, 5-Chloro-N-((1-(4-(2-oxopyridin-1(2H)-yl)-2-(thiomorpholinomethyl)phenyl)-1H-1,2,3-triazol-4-yl)methyl)thiophene-2-carboxamide], the IC50 is reported as at most 100 nM. Molecule `NCc1cc(-n2ccccc2=O)ccc1-n1cc(CNC(=O)c2ccc(Cl)s2)nn1` [Compound 120, N-((1-(2-(Aminomethyl)-4-(2-oxopyridin-1(2H)-yl)phenyl)-1H-1,2,3-triazol-4-yl)methyl)-5-chlorothiophene-2-carboxamide] has an IC50 of at most 100 nM. In the case of `O=C(NCc1cn(-c2ccc(-n3ccccc3=O)cc2Oc2cccnc2)nn1)c1ccc(Cl)s1` [Compound 64, 5-Chloro-N-((1-(4-(2-oxopyridin-1(2H)-yl)-2-(pyridin-3-yloxy)phenyl)-1H-1,2,3-triazol-4-yl)methyl)thiophene-2-carboxamide], the IC50 is reported as at most 100 nM. `O=C(NCc1cn(-c2ccc(-n3ccccc3=O)cc2OCCc2cccnc2)nn1)c1ccc(Cl)s1` [Compound 174, 5-Chloro-N-((1-(4-(2-oxopyridin-1(2H)-yl)-2-(2-(pyridin-3-yl)ethoxy)phenyl)-1H-1,2,3-triazol-4-yl)methyl)thiophene-2-carboxamide] was tested, and the IC50 was at most 100 nM. `O=C(NCc1cn(-c2ccc(-n3ccccc3=O)cc2N2CCCCC2)nn1)c1ccc(Cl)s1` [Compound 4, 5-Chloro-N-((1-(4-(2-oxopyridin-1(2H)-yl)-2-(piperidin-1-yl)phenyl)-1H-1,2,3-triazol-4-yl)methyl)thiophene-2-carboxamide] gave an IC50 of at most 100 nM. With `CN(CCO)c1cc(-n2ccccc2=O)ccc1-n1cc(CNC(=O)c2ccc(Cl)s2)nn1` [Compound 28, 5-Chloro-N-((1-(2-((2-hydroxyethyl)(methyl)amino)-4-(2-oxopyridin-1(2H)-yl)phenyl)-1H-1,2,3-triazol-4-yl)methyl)thiophene-2-carboxamide] the IC50 was at most 100 nM. In the case of `NCCCNC(=O)c1cc(-n2ccccc2=O)ccc1-n1cc(CNC(=O)c2ccc(Cl)s2)nn1` [Compound 112, N-((1-(2-(3-aminopropylcarbamoyl)-4-(2-oxopyridin-1(2H)-yl)phenyl)-1H-1,2,3-triazol-4-yl)methyl)-5-chlorothiophene-2-carboxamide], the IC50 is reported as 100 to 500 nM. `O=C(NCc1cn(-c2ccc(-n3ccccc3=O)cc2OC[C@H](O)CO)nn1)c1ccc(Cl)s1` [Compound 78, 5-Chloro-N-((1-(2-((R)-2,3-dihydroxypropoxy)-4-(2-oxopyridin-1(2H)-yl)phenyl)-1H-1,2,3-triazol-4-yl)methyl)thiophene-2-carboxamide] gave an IC50 of at most 100 nM. Work on `Nc1cc(-n2ccccc2=O)ccc1-n1cc(CNC(=O)c2ccc(Cl)s2)nn1` [Compound 45, N-((1-(2-Amino-4-(2-oxopyridin-1(2H)-yl)phenyl)-1H-1,2,3-triazol-4-yl)methyl)-5-chlorothiophene-2-carboxamide] yielded an IC50 of at most 100 nM. Molecule `O=C(NCc1cn(-c2ccc(-n3ccccc3=O)cc2NCCO)nn1)c1ccc(Cl)s1` [Compound 26, 5-Chloro-N-((1-(2-(2-hydroxyethylamino)-4-(2-oxopyridin-1(2H)-yl)phenyl)-1H-1,2,3-triazol-4-yl)methyl)thiophene-2-carboxamide] has an IC50 of at most 100 nM.
